# Columns and labels:
# [1] = target: OPRM1 receptor (Homo sapiens, UniProt P35372)
# [2] = target: mu opioid receptor subtype OPRM1 (Homo sapiens, UniProt P35372)
# mu opioid receptor subtype OPRM1, sequence (P35372 whole entry): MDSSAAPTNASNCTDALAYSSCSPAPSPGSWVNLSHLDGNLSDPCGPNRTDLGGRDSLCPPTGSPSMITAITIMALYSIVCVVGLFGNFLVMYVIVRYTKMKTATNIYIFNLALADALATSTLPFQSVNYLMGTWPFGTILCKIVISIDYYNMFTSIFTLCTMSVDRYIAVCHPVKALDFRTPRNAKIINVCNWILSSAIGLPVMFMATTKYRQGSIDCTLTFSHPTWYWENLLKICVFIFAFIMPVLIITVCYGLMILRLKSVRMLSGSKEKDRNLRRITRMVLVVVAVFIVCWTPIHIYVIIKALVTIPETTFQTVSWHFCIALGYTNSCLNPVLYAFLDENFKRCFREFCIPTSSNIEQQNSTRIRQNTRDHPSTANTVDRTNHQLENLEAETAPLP
# OPRM1 receptor, sequence (P35372 whole entry): as above
smiles,measurement,setting,value
COc1ccc2c3c1O[C@H]1C(=O)CC[C@@]4(O)[C@@H](C2)N(C)CC[C@]314 [oxycodone],"% Max. Resp., cAMP",[1],100.62%
same,"% Max. Resp., β-arrestin",[2],102.03%
